Data reported in patent publication US20240252546A1, “NEURITE OUTGROWTH PROMOTION KIT AND USE THEREFOR” (KEIO UNIVERSITY, priority 2021, published 2024).

What was measured:
[1] = system: phosphorylated p38; test: Immunostaining of phosphorylated p38 in treated neurospheres (Experimental Example 3); format: cell-based, human; conditions: 201B7 neurospheres; 10 μM DAPT, 1 μM Compound 34, 24 hours; vs control
Description: Neurospheres derived from 201B7 cells were treated with various γ-secretase inhibitors in the same manner as in Experimental Example 1. As the γ-secretase inhibitor, DAPT, Compound 34, L-685,458, LY411575, Sulindac, and Compound E were used at the same concentrations as in Experimental Example 1. Subsequently, each neurosphere was fixed with paraformaldehyde and subjected to immunostaining of phosphorylated p38.
FIG. 5 is a graph showing the results obtained by quantifying the amount of the phosphorylated p38 in the neurosphere which had been treated with each of the γ-secretase inhibitors. In FIG. 5, “Ctl” indicates the result obtained from the control, “DAPT” indicates the result obtained by the DAPT treatment, “C. 34” indicates the result obtained by Compound 34 treatment, “L-685” indicates the result obtained by the L-685,458 treatment, “LY” indicates the result obtained by the LY411575 treatment, “Suli” indicates the result obtained by the Sulindac treatment, and “Com. E” indicates the result obtained by the Compound E treatment.

[2] = system: p38; test: Expression level of p38 by RNA-seq (Experimental Example 3); format: cell-based, human; conditions: 201B7 neurospheres, vs control
Description: FIG. 6 is a graph showing the results obtained by treating the neurosphere derived from 201B7 cells with each of DAPT and Compound 34, carrying out the RNA-seq analysis, and quantifying the expression level of p38 based on transcriptome data.

[3] = system: CDC25B; test: Expression level of CDC25B by RNA-seq (Experimental Example 4); format: cell-based, human; conditions: 201B7 neurospheres, vs control
Description: FIG. 9 is a graph showing the results obtained by treating the neurosphere derived from 201B7 cells with each of DAPT and Compound 34, carrying out the RNA-seq analysis, and quantifying the expression level of CDC25B based on transcriptome data.

[4] = system: phosphorylated CDC25B; test: Phosphorylated CDC25B in nerve cells after inducing differentiation (Experimental Example 12); format: cell-based, human; conditions: 201B7 neurospheres treated 24 hours, differentiated 14 days; compared with the untreated case
Description: Neurospheres were treated with DAPT or Compound 34, and the amount of phosphorylated CDC25B after inducing differentiation into nerve cells was examined.
Neurospheres derived from 201B7 cells, which are cells of a human iPS cell line, were prepared in the same manner as in Experimental Example 1. Subsequently, each neurosphere was cultured for 24 hours in the presence of each of DAPT and Compound 34. DAPT and Compound 34 were used at the same concentrations as in Experimental Example 1.
Subsequently, each neurosphere was seeded on a 48-well chamber slide (IWAKI & CO., LTD.) coated with poly-L-ornithine/fibronectin, cultured for 14 days in a culture medium containing no growth factor at 37° C. in an environment of 95% air and 5% CO2, and differentiated into nerve cells.
Subsequently, each of the obtained nerve cells was fixed with 4% paraformaldehyde and subjected to immunostaining of each of βIII-tubulin, which is a nerve cell marker, and phosphorylated CDC25B.
FIGS. 20(a) to 20(f) show fluorescence photomicrographs showing the representative results of immunostaining. The scale bar is 100 μm. […]

[5] = system: nerve cells induced to differentiate from a neurosphere; conditions: nerve cells from a neurosphere on which DAPT has been allowed to act; cited from earlier work
[6] = system: spinal cord injury in the chronic phase; conditions: DAPT used on a neurosphere, neurosphere then transplanted into the site of injury; cited from earlier work

| Structure (SMILES) | amount of phosphorylated p38 in the neurosphere [1] | expression level of p38 [2] | expression level of CDC25B [3] | amount of phosphorylated CDC25B after inducing differentiation into nerve cells [4] | neurite outgrowth [5] | phosphorylation of p38 MAPK [5] | treatment of spinal cord injury in the chronic phase [6] |
| --- | --- | --- | --- | --- | --- | --- | --- |
| C[C@H](NC(=O)Cc1cc(F)cc(F)c1)C(=O)N[C@H](C(=O)OC(C)(C)C)c1ccccc1 [DAPT] | significantly increased | not increased | slightly increased | increased | promoted | increased | can be treated |
| O=C1Nc2ccccc2C(c2ccccc2)=N[C@@H]1NC(=O)[C@H](c1ccc(F)cc1)[C@@H](CO)c1ccc(F)c(F)c1 [Compound 34] | significantly increased | not increased | slightly increased | increased |  |  |  |
